Measurements as given in patent EP0533240A2, “Substituted amine derivatives of piperazinylcamphorsulfonyl oxytocin antagonists” (MERCK & CO. INC., priority 1991, dated 1993).

Molecular target: T1, uterine OT receptors (Rattus norvegicus, UniProt P70536)
T1 construct: from tissue; host or cells: uterus of DES-treated rats, crude membrane preparation
T1 sequence (P70536 1-388): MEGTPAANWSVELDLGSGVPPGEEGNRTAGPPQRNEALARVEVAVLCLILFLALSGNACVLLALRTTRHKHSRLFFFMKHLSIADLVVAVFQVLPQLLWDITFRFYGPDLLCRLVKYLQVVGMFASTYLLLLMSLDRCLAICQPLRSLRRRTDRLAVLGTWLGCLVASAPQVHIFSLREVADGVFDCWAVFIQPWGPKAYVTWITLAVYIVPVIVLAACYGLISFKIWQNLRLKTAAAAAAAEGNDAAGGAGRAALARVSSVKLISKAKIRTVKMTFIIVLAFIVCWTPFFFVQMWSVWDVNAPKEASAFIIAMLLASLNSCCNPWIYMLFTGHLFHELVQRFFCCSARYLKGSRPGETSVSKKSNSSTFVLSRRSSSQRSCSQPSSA
Test: [3H]Oxytocin radioligand binding assay, crude uterine membrane preparation
Design: species or system rats
Settings: for inhibition at 1 µM: at 1,000 nM compound; for IC50: competition with 1 nM [3H]OT, 60 minutes, 22 °C, membranes of uteri from DES-treated rats; for inhibition at 10 µM: at 10,000 nM compound

[1] = 1 nM [3H]OT, rat uterine membranes

Procedure: Oxytocin (OT)([tyrosyl, 3,5-[^3H]OT; 30-60 Ci/mmol; New England Nuclear. Boston, MA) to uterine OT receptors was based on an assay*using a crude membrane preparation of uteri taken from diethylstilbestrol dipropionate (DES)-treated (0.3 mg/kg, ip; 18-24) rats. Competetion studies were conducted at equilibrium (60 minutes; 22 °C) using 1 nM[^3H]OT in the following assay buffer: 50 mM Tris-HCI, 5 mM MgCl2, and 0.1% BSA, pH 7.4. Nonspecific binding (10% of the total binding) was determined using 1µM unlabeled OT and the binding reaction was terminated by filtration through glass fiber filters using a cell harvester (model 7019, Skatron, Inc., Sterling, VA).

Structure (SMILES) | IC50 | also measured
Cc1ccccc1N1CCN(S(=O)(=O)CC23CCC(CC2(O)CNCC(C)C)C3(C)C)CC1 (stereo not drawn) [Example 19, 1-((7,7-DIMETHYL-2-EXO-HYDROXY-2-ENDO-ISOBUTYLAMINOMETHYL-BICYCLO(2.2.1 )HEPTAN-1-YL)-METHANESULFONYL)-4-(2-METHYLPHENYL)PIPERAZINE] | – | inhibition at 1 µM [1]: 31%
COC(=O)C1=CC2CCC1(CS(=O)(=O)N1CCN(c3ccccc3C)CC1)C2(C)C (stereo not shown) [Example 20, 1-((7,7-DIMETHYL-2-METHOXYCARBONYL-BICYCLO (2.2.1)HEPT-2-EN-1-YL)METHANESULFONYL)-4-(2-METHYLPHENYL)PIPERAZINE] | – | inhibition at 1 µM [1]: 72%
Cc1ccccc1N1CCN(S(=O)(=O)CC23CCC(C=C2C(=O)O)C3(C)C)CC1 (stereo not shown) [Example 21, 1-((7,7-DIMETHYL-2-CARBOXY-BICYCLO(2.2.1) HEPT-2-EN-1 -YL)METHANESULFONYL)-4-(2-METHYLPHENYL)PIPERAZINE] | – | inhibition at 1 µM [1]: 38%
Cc1ccccc1N1CCN(S(=O)(=O)CC23CCC(C=C2C(=O)NCCc2c[nH]cn2)C3(C)C)CC1 (stereo not shown) [Example 22, 1-((7,7-DIMETHYL-2-(4-IMIDAZOLYL)ETHYLAMINOCARBONYL-BICYCLO(2.2.1 )HEPT-2-EN-1-YL)-METHANESULFONYL)-4-(2-METHYLPHENYL)PIPERAZINE] | – | inhibition at 1 µM [1]: 78%
Cc1ccccc1N1CCN(S(=O)(=O)CC23CCC(CC2=O)C3(C)C)CC1=O (stereo not shown) [Example 30] | – | inhibition at 10 µM [1]: 16%
Cc1ccccc1N1CCN(S(=O)(=O)CC23CCC(CC2=O)C3(C)C)C(C)C1=O (stereo not shown) [Example 31] | – | inhibition at 10 µM [1]: 5%
Cc1ccccc1N1CCN(S(=O)(=O)CC23CCC(CC2O)C3(C)C)C(C)C1 (stereo not shown) [Example 32] | – | inhibition at 1 µM [1]: 37%
Cc1ccccc1N1CCN(S(=O)(=O)CC23CCC(CC2NC(=O)[C@@H](N)CCS(C)(=O)=O)C3(C)C)CC1=O (stereo partly drawn) [Example 36, 1-((7,7-DIMETHYL-2-ENDO-(2S-AMINO-4-(METHYLSULFONYL)BUTYRAMIDO)-BICYCLO(2.2.1 )HEPTAN-1-YL)METHANESULFONYL)-4-(2-METHYLPHENYL)-3-PIPERAZINONE] | 7.7 nM | –
Cc1ccccc1N1CCN(S(=O)(=O)CC23CCC(CC2NC(=O)OCc2ccccc2)C3(C)C)CC1 (stereo not shown) [Example 39] | – | inhibition at 1 µM [1]: 54%
Cc1ccccc1N1CCN(S(=O)(=O)CC23CCC(CC2N(C)C(=O)OCc2ccccc2)C3(C)C)CC1 (stereo not shown) [Example 40] | – | inhibition at 1 µM [1]: 35%
Cc1ccccc1N1CCN(S(=O)(=O)CC23CCC(CC2NC(=O)Cc2c[nH]cn2)C3(C)C)CC1 (stereo not shown) [Example 43] | 110 nM | –
Cc1ccccc1N1CCN(S(=O)(=O)CC23CCC(CC2NC(=O)C(C)c2c[nH]cn2)C3(C)C)CC1 (stereo not drawn) [Example 44, 1-((7,7-DIMETHYL-2-ENDO-(2-(4-IMIDAZOLYL)PROPANOYL)AMINO-BICYCLO(2.2.1 )HEPTAN-1-YL)-METHANESULFONYL)-4-(2-METHYLPHENYL)-3-PIPERAZINE] | 180 nM | –
COC(=O)CCN1CCCC(C(=O)NCC(C)C2(O)CC3CCC2(CS(=O)(=O)N2CCN(c4ccccc4C)CC2)C3(C)C)C1 (stereo not shown) [Example 48] | 30 nM | –
COC(=O)CCN1CCC(C(=O)NCC(C)C2(O)CC3CCC2(CS(=O)(=O)N2CCN(c4ccccc4C)CC2)C3(C)C)CC1 (stereo not shown) [Example 55] | 30 nM | –
CCOC(=O)CN1CCCC(C(=O)NC(C)CC2(O)CC3CCC2(CS(=O)(=O)N2CCN(c4ccccc4C)CC2)C3(C)C)C1 (stereo not shown) [Example 57] | – | inhibition at 100 nM (at 100 nM compound, 1 nM [3H]OT, rat uterine membranes): 66% inhibition at 100 nM

Now from value to compound, other results behind:

IC50 | Structure (SMILES) | also measured
35 nM | COC(=O)C1CC(=O)N(CC(C)C2(O)CC3CCC2(CS(=O)(=O)N2CCN(c4ccccc4C)CC2)C3(C)C)C1 (stereo not shown) [Example 26] | –
12 nM | COC(=O)CCN1CCCC1C(=O)NCC(C)C1(O)CC2CCC1(CS(=O)(=O)N1CCN(c3ccccc3C)CC1)C2(C)C (stereo not shown) [Example 45] | –
20 nM | Cc1ccccc1N1CCN(S(=O)(=O)CC23CCC(CC2(O)C(C)CNC(=O)C2CCCN2CCC(=O)O)C3(C)C)CC1 (stereo not shown) [Example 46] | –
15 nM | Cc1ccccc1N1CCN(S(=O)(=O)CC23CCC(CC2(O)C(C)CNC(=O)C2CCCNC2)C3(C)C)CC1 (stereo not drawn) [Example 47, 1-((7,7-DIMETHYL-2-EXO-HYDROXY-2-ENDO-2-(1-(3-PIPERIDINYLCARBONYL)AMINO)PROPYL-BICYCLO-(2.2.1)HEPTAN-1-YL) METHANESULFONYL)-4-(2-METHYLPHENYL)PIPERAZINE] | –
25 nM | Cc1ccccc1N1CCN(S(=O)(=O)CC23CCC(CC2(O)C(C)CNC(=O)C2CCCN(CCC(=O)O)C2)C3(C)C)CC1 (stereo not drawn) [Example 49, 1-((7,7-DIMETHYL-2-EXO-HYDROXY-2-ENDO-2-(1-(3-(1-CARBOXYETHYL)PIPERIDINYLCARBONYL)-AMINO)PROPYL-BICYCLO-(2.2.1)HEPTAN-1-YL)METHANESULFONYL)-4-(2-METHYLPHENYL) PIPERAZINE] | –
38 nM | Cc1ccccc1N1CCN(S(=O)(=O)CC23CCC(CC2(O)C(C)CNC(=O)C2CCCN(CC(=O)O)C2)C3(C)C)CC1 (stereo not shown) [Example 51] | –
28 nM | Cc1ccccc1N1CCN(S(=O)(=O)CC23CCC(CC2(O)C(C)CNC(=O)C2CCCN2CC(=O)O)C3(C)C)CC1 (stereo not shown) [Example 53] | –
14 nM | Cc1ccccc1N1CCN(S(=O)(=O)CC23CCC(CC2(O)C(C)CNC(=O)C2CCNCC2)C3(C)C)CC1 (stereo not shown) [Example 54] | –
54 nM | Cc1ccccc1N1CCN(S(=O)(=O)CC23CCC(CC2(O)C(C)CNC(=O)C2CCN(CCC(=O)O)CC2)C3(C)C)CC1 (stereo not drawn) [Example 56, 1-((7,7-DIMETHYL-2-EXO-HYDROXY-2-ENDO-2-(1-(4-(1-CARBOXYETHYL)PIPERIDINYLCARBONYL)-AMINO)PROPYL-BICYCLO-(2.2.1)HEPTAN-1-YL)METHANESULFONYL)-4-(2-METHYLPHENYL) PIPERAZINE] | –
56 nM | Cc1ccccc1N1CCN(S(=O)(=O)CC23CCC(CC2(O)C(C)CNC(=O)C2CCN(CC(=O)O)CC2)C3(C)C)CC1 (stereo not drawn) [Example 58, 1-((7,7-DIMETHYL-2-EXO-HYDROXY-2-ENDO-2-(1-(4-(1-CARBOXYMETHYL)PIPERIDINYLCARBONYL)-AMINO)PROPYL-BICYCLO (2.2.1)HEPTAN-1-YL)METHANESULFONYL)-4-(2-METHYLPHENYL) PIPERAZINE] | –
